# Test results as given in publication PMC8194028, “Engineering and characterization of human β-defensin-3 and its analogues and microcin J25 peptides against Mannheimia haemolytica and bovine neutrophils” (Veterinary Research, 2021).
# Like-named read-outs stand apart in the source and are kept apart here. Positions of bridges follow the written chain, without caps; N, C: chain ends. Residues, ends and D or L forms follow the SMILES beside them. No end group written: not given here.
# Tested on: M. haemolytica-A1
# Format: cell-based, Mannheimia haemolytica
# Details: for No. of CFU: one of three experiments
# Description: Wild-type HBD3, its analogues, and MccJ25 were tested against M. haemolytica-A1 using optical density method and colony count assay. Briefly, an aliquot (5 µL) from bacteria suspension stored at −80 °C was put in 5 mL BHI broth at 37 °C for 18 h. An aliquot (10 µL) from this overnight culture was added to fresh BHI broth and incubated at 37 °C for a further 5 h to obtain mid-log phase bacteria. The culture was then centrifuged for 10 min at 800 g at 4 °C. The supernatant was discarded and the bacterial pellet was resuspended in cold, sterile sodium phosphate buffer (SPB) and washed again at 800g for 10 min at 4 °C. The pellet was resuspended in 5 mL SPB. To calculate the number of CFU/mL in the 5 h culture, six successive tenfold dilutions were made. From the last dilution 100 µL was plated in duplicate on petri dishes containing BHI agar and incubated for 24 h. After 24 h the colonies were counted in the two petri dishes and then averaged. Total number of colonies was the average number of colonies multiplied by the dilution factor.
# All assays were carried out in sterile 96-well polypropylene flat-bottomed plates using a broth microdilution method. Two-fold serial dilutions of peptide were made in SPB, and 50 µL of each concentration of peptide was added to the wells of the assay plate. […] Positive control wells contained 50 µL of the bacteria with 50 µL of 64 µg/mL ampicillin and negative control wells contained 50 µL of SPB and 50 µL bacterial suspension. Sterility control well contained 100 µL BHI broth to test and ensure that broth was not contaminated.
# The plates were sealed with aluminum foil and were incubated at 37 °C for 2 h then 50 µL of the contents of the well were pipetted on BHI agar plates and incubated for 24 h. The bactericidal activity was expressed as the MBC which is the concentration at which 99.9% of the colonies are killed and the Lethal dose 50 (LD50) at which 50% or more bacteria are killed. All experiments were run in triplicates.
# Peptides HBD3, its analogues and Mccj25 were assessed for Minimum bactericidal concentration (MBC). […] All the peptides have shown intermediate to potent killing activity towards M. haemolytica (Figures 2, 3). […] However, some published studies have taken final inoculum in the range of 10^4–10^5 cfu/mL [28].
compound,measurement,setting,value
"CC[C@H](C)[C@H](NC(=O)CNC(=O)[C@@H](NC(=O)[C@H](Cc1ccccc1)NC(=O)[C@H](Cc1ccc(O)cc1)NC(=O)[C@@H]1CCC(=O)NCC(=O)NCC(=O)N[C@@H](C)C(=O)NCC(=O)N[C@@H](Cc2c[nH]cn2)C(=O)N[C@@H](C(C)C)C(=O)N2CCC[C@H]2C(=O)N1)C(C)C)C(=O)NCC(=O)N[C@H](C(=O)N1CCC[C@H]1C(=O)N[C@H](C(=O)N[C@@H](CO)C(=O)N[C@@H](Cc1ccccc1)C(=O)N[C@@H](Cc1ccc(O)cc1)C(=O)NCC(=O)O)[C@@H](C)CC)[C@@H](C)O [MccJ25, Microcin J25] (GGAGHVPEYFVGIGTPISFYG-OH; lactam N-8 (inferred); C-terminus assumed)",MBC,"concentration at which 99.9% of the CFU in the final inoculum are killed, 2 h at 37 °C in SPB/BHI, then plated on BHI agar 24 h, final inoculum 1 × 10^5 to 1 × 10^6 cfu/mL, triplicates",100 µg/mL
same,LD50,"lethal dose for ≥ 50% of bacteria, 2 h at 37 °C, then plated 24 h, final inoculum 1 × 10^5 to 1 × 10^6 cfu/mL, triplicates",6.3 µg/mL
same,No. of CFU,"peptide 0.8 μg/mL, well row A (duplicate 1), final inoculum 5 × 10^5 cfu/mL",>400 CFU
same,No. of CFU,"peptide 0.8 μg/mL, well row B (duplicate 2), final inoculum 5 × 10^5 cfu/mL",>400 CFU
same,No. of CFU,"peptide 1.6 μg/mL, well row A (duplicate 1), final inoculum 5 × 10^5 cfu/mL",>400 CFU
same,No. of CFU,"peptide 1.6 μg/mL, well row B (duplicate 2), final inoculum 5 × 10^5 cfu/mL",>400 CFU
same,No. of CFU,"peptide 3.1 μg/mL, well row A (duplicate 1), final inoculum 5 × 10^5 cfu/mL",>400 CFU
same,No. of CFU,"peptide 3.1 μg/mL, well row B (duplicate 2), final inoculum 5 × 10^5 cfu/mL",>400 CFU
same,No. of CFU,"peptide 6.3 μg/mL, well row A (duplicate 1), final inoculum 5 × 10^5 cfu/mL",289 CFU
same,No. of CFU,"peptide 6.3 μg/mL, well row B (duplicate 2), final inoculum 5 × 10^5 cfu/mL",261 CFU
same,No. of CFU,"peptide 12.5 μg/mL, well row A (duplicate 1), final inoculum 5 × 10^5 cfu/mL",211 CFU
same,No. of CFU,"peptide 12.5 μg/mL, well row B (duplicate 2), final inoculum 5 × 10^5 cfu/mL",253 CFU
same,No. of CFU,"peptide 25.0 μg/mL, well row A (duplicate 1), final inoculum 5 × 10^5 cfu/mL",314 CFU
same,No. of CFU,"peptide 25.0 μg/mL, well row B (duplicate 2), final inoculum 5 × 10^5 cfu/mL",310 CFU
same,No. of CFU,"peptide 50.0 μg/mL, well row A (duplicate 1), final inoculum 5 × 10^5 cfu/mL",328 CFU
same,No. of CFU,"peptide 50.0 μg/mL, well row B (duplicate 2), final inoculum 5 × 10^5 cfu/mL",230 CFU
same,No. of CFU,"peptide 100.0 μg/mL, well row A (duplicate 1), final inoculum 5 × 10^5 cfu/mL, 2 h 37 °C, 50 μL plated, 24 h",211 CFU
same,No. of CFU,"peptide 100.0 μg/mL, well row B (duplicate 2), final inoculum 5 × 10^5 cfu/mL",275 CFU
RGRKVVRRKK-OH [HBD3 10AA analogue],MBC,2 h,6.3 µg/mL
same,LD50,18 h,≥ 3.1 µg/mL
same,No. of CFU,"peptide 3.1 μg/mL, well row A (duplicate 1), final inoculum 10^4 cfu/mL",7 CFU
same,No. of CFU,"peptide 3.1 μg/mL, well row B (duplicate 2), final inoculum 10^4 cfu/mL",2 CFU
same,No. of CFU,"peptide 6.3 μg/mL, well row A (duplicate 1), final inoculum 10^4 cfu/mL",4 CFU
same,No. of CFU,"peptide 6.3 μg/mL, well row B (duplicate 2), final inoculum 10^4 cfu/mL",1 CFU
same,No. of CFU,"peptide 12.5 μg/mL, well row A (duplicate 1), final inoculum 10^4 cfu/mL",4 CFU
same,No. of CFU,"peptide 12.5 μg/mL, well row B (duplicate 2), final inoculum 10^4 cfu/mL",6 CFU
same,No. of CFU,"peptide 25.0 μg/mL, well row A (duplicate 1), final inoculum 10^4 cfu/mL",4 CFU
same,No. of CFU,"peptide 25.0 μg/mL, well row B (duplicate 2), final inoculum 10^4 cfu/mL",3 CFU
same,No. of CFU,"peptide 50.0 μg/mL, well row A (duplicate 1), final inoculum 10^4 cfu/mL",4 CFU
same,No. of CFU,"peptide 50.0 μg/mL, well row B (duplicate 2), final inoculum 10^4 cfu/mL",1 CFU
same,No. of CFU,"peptide 100.0 μg/mL, well row A (duplicate 1), final inoculum 10^4 cfu/mL",0 CFU
same,No. of CFU,"peptide 100.0 μg/mL, well row B (duplicate 2), final inoculum 10^4 cfu/mL",0 CFU
